Test results as given in patent publication EP0724879A2, “2-Phenyl-3-azoylbenzothiopenes for inhibiting effects of IL-6” (ELI LILLY AND COMPANY, priority 1995, dated 1996).

Key:
[1] = tested on: LIF stimulated cell proliferation (B9 hybridoma); assay: Assay 3: cytokine dependent cell proliferation, LIF; format: cell-based; settings: Mus musculus; 50% inhibition of LIF dependent cell proliferation; 0.01 to 1 µM tested
Method: (§1) The following mouse cell lines were used for cytokine bioassays: CTLL.6 cytolytic T cell - IL-2, IL-4; 11.6 helper T cell - IL-4; T1165.17 plasmacytoma - IL-1, IL-6; B9 hybridoma - IL-6, LIF (leukemia inhibitory factor). Approximately 5,000 cells are seeded per duplicate well in 96-well flat-bottom microtiter plates in standard tissue culture medium (i.e. Iscove's Modified Dulbecco's Medium or Dulbecco's Modified Eagle's Medium supplemented with 25 mM Hepes, 2 mM L-glutamine, 50 µM 2-mercaptoethanol, 50 units/ml penicillin, 50 µg/ml streptomycin sulfate, and fetal bovine serum) containing vehicle (DMSO), raloxifene (0.01 to 1 µM) or 17-b-estradiol (0.01 to 1 µM) in the absence or presence of the indicated recombinant cytokine. Microtiter plates are incubated at 37°C in a humidified 10% CO2 incubator for 24 to 72 hours. At the end of that time, either 1 µCi 3H-thymidine or 100 µg of MTT (3-[4,5-dimethylthiazol-2-yl]-2,5-diphenyltetrazolium bromide) is added per well followed by an additional 4 to 6 hours of incubation. Microcultures pulsed using tritiated thymidine are harvested onto filter pads and counted by liquid scintillation. […] Optical density readings are taken at 570 nm with a reference wavelength of 690 nm to quantitate cell proliferation. […]

[2] = tested on: IL-6 stimulated cell proliferation (T1165.17 plasmacytoma; B9 hybridoma); assay: Assay 3: cytokine dependent cell proliferation, IL-6; format: cell-based; settings: Mus musculus; 50% inhibition of IL-6 dependent cell proliferation; 0.01 to 1 µM tested
Method: as §1

[3] = tested on: IL-2 stimulated proliferation (CTLL.6 cytolytic T cell); assay: Assay 3: cytokine dependent cell proliferation, IL-2; format: cell-based; settings: Mus musculus, 50% inhibition of IL-2 dependent cell proliferation, 0.01 to 1 µM tested
Method: as §1

OVX-induced osteopenia = assay: Assay 1: bone mass / BMD protection in OVX rats; format: in vivo, SD rats; settings: for BMD % (protection) / OVX-induced osteopenia: OVX rats, 35 day treatment; for OVX-induced osteopenia / bone density: result in words; for bone density: OVX/hypophysectomized (HYPOX) rats
Method: (§2) Six month old, virgin SD rats are OVX or OVX/hypophysectomized (HYPOX) and treated with vehicle (20% cyclodextrin, PO), raloxifene (0.1 to 10 mg/kg/day, PO) or ethynyl estradiol EE2; 0.001 to 0.1 mg/kg/day, PO). A sham, vehicle treated control is also included. Serum and/or long bones are collected after a 35 day or shorter treatment period. Serum cytokine determinations are performed by bioassay.
(§3) No consistent changes in other serum cytokines is detected.

[4] = tested on: IL-4 stimulated proliferation (CTLL.6 cytolytic T cell; 11.6 helper T cell); assay: Assay 3: cytokine dependent cell proliferation, IL-4; format: cell-based; settings: Mus musculus, 50% inhibition of IL-4 dependent cell proliferation, 0.01 to 1 µM tested
Method: as §1

IL-6 [5] = assay: Assay 1: serum IL-6 in OVX rats (bioassay); format: in vivo, SD rats
Method: as §2, §3

IL-6 [6] = assay: Assay 2: IL-1-induced serum IL-6 in mice (ELISA); format: in vivo; settings: male BALB/c mice, 1 mg/kg PO for 3 days, then IL-1b 3 ug SC, 2 hours
Method: Ten week old male BALB/c mice are treated with vehicle (20% cyclodextrin, PO) or raloxifene (1 mg/kg, PO) for 3 days. On day 4, mice are treated with vehicle (saline, IP), LA-15.1 anti-IL-1 receptor monoclonal antibody (mAb) (250 ug, IP) or human recombinant IL-1b (3 ug, SC). After 2 hours, serum was collected by orbital sinus puncture and IL-6 levels quantitated by ELISA.
Injection of IL-1 into cyclodextrin treated mice induces a significant increase in serum IL-6 (193 ± 29 ng/ml) versus saline injected cyclodextrin treated mice (<1 ng/ml) (Table 2). […] The anti-IL-1 receptor mAb LA-15.1 completely attenuates the IL-1-induced rise in serum IL-6 levels.

[7] = OVX rats, 100 µg/kg, 35 day treatment
[8] = OVX rats, 35 day treatment, PO, result in words
[9] = animals treated for as few as four days post-OVX, result in words

Row | IC50 [1] [nM] | IC50 [2] [nM] | SMILES | IC50 [3] [nM] | BMD % (protection) (OVX-induced osteopenia; 100 µg/kg) [%] | IC50 [4] [nM] | Serum IL-6 (IL-6 [5]; [7]) [ng/mL] | OVX-induced osteopenia (OVX-induced osteopenia; PO) | bone density (OVX-induced osteopenia) | rise in serum IL-6 levels (IL-6 [5]; [8]) | Serum IL-6 (IL-6 [5]; [9]) | further results
1 | > 1000 | > 1000 | C[C@]12CC[C@@H]3c4ccc(O)cc4CC[C@H]3[C@@H]1CC[C@@H]2O [17-β-E2, 17-b-estradiol] | > 1000 | 106.4 ± 11.8 | > 1000 | 0.07 ± 0.10 | – | – | – | – | –
2 | – | – | C#C[C@]1(O)CC[C@H]2[C@@H]3CCc4cc(O)ccc4[C@H]3CC[C@@]21C [Ethy, ethynyl estradiol] | – | 76.00 ± 18.3 | – | 0.20 ± 0.10 | significantly attenuate | did not respond | significantly attenuate | significant reduction | BMD % (protection) (OVX-induced osteopenia; 1 µg/kg): 5.28 ± 11.83%; BMD % (protection) (OVX-induced osteopenia; 10 µg/kg): 57.25 ± 16.07%; Serum IL-6 (IL-6 [5]; OVX rats, 1 µg/kg, 35 day treatment): 3.42 ± 2.23 ng/mL; Serum IL-6 (IL-6 [5]; OVX rats, 10 µg/kg, 35 day treatment): 1.84 ± 0.60 ng/mL
3 | 603 | 719 | O=C(c1ccc(OCCN2CCCCC2)cc1)c1c(-c2ccc(O)cc2)sc2cc(O)ccc12 [Raloxifene] | > 1000 | – | > 1000 | – | significantly attenuate | did not respond | significantly attenuate | significant reduction | IL-6 (IL-6 [6]; 1 mg/kg): 90 ± 21 ng/mL; IL-6 (IL-6 [6]; listed as 139478, 1 mg/kg): 90 ± 2.1 ng/mL; BMD % (protection) (OVX-induced osteopenia; 0.1 mg.kg, PO): 63.88 ± 19.8%; BMD % (protection) (OVX-induced osteopenia; 1 mg/kg, PO): 82.50 ± 17.17%; BMD % (protection) (OVX-induced osteopenia; 10 mg/kg, PO): 82.09 ± 7.02%; Serum IL-6 (IL-6 [5]; OVX rats, 0.1 mg.kg, PO, 35 day treatment): 4.32 ± 1.65 ng/mL; Serum IL-6 (IL-6 [5]; OVX rats, 1 mg/kg, PO, 35 day treatment): 1.55 ± 0.48 ng/mL; Serum IL-6 (IL-6 [5]; OVX rats, 10 mg/kg, PO, 35 day treatment): 1.23 ± 0.45 ng/mL
